From patent US9315490B2, “2,5-substituted pyrimidines” (Grünenthal GmbH, priority 2014, dated 2016)

What follows are compounds tested against T1, human PDE4B1 (Homo sapiens, UniProt Q07343) (assay: cAMP HTRF assay to determine the activity of hPDE4B1). Settings: inhibition of PDE4B at a test concentration of 1 μM.
T1 construct: host or cells: Sf9 cells
T1 sequence (Q07343 whole entry): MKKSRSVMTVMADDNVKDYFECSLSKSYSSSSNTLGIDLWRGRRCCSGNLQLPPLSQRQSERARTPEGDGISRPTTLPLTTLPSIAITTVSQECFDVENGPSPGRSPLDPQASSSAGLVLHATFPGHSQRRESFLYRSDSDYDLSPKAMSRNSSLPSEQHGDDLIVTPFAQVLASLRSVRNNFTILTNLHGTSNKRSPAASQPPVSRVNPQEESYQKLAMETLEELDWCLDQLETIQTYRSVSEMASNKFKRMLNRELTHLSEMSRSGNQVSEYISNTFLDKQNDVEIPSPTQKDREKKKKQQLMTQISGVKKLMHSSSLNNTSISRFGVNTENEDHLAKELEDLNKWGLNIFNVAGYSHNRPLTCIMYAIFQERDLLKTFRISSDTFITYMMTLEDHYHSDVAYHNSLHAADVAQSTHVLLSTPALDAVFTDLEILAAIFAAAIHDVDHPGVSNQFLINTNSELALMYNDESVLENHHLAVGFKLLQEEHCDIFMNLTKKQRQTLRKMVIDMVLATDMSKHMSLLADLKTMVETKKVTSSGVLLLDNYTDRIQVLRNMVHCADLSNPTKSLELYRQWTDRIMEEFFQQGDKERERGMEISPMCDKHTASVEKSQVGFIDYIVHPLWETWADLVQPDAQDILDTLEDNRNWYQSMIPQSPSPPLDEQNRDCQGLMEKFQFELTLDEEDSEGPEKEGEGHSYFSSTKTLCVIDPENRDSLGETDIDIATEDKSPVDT
Format: biochemical
Protocol: Biological Testing cAMP HTRF® Assay to Determine the Activity of hPDE4B1
The inhibiting effect of the compounds on the enzyme activity of human PDE4B1 was measured by the quantification of 5′-adenosine monophosphate (5′-AMP), which is formed from 3′,5′-cyclic adenosine monophosphate (cAMP). Human recombinant enzyme, expressed in Sf9 cells, and the HTRF (homogeneous time-resolved fluorescence) detection method were used in the assay.
The test compound or water (control) was mixed with the human recombinant PDE4B1 enzyme (4.8 U) in a buffer consisting of 44.4 mM tris-HCl, 5.28 mM MgCl2, 2.64 mM DTT and 0.044% Tween 20 (pH 7.8). After adding the cAMP enzyme substrate (final concentration 40 nM), the mixture was incubated for 30 minutes at room temperature. Then a fluorescence acceptor (Dye2 marked with cAMP), a fluorescence donor (anti-cAMP antibody marked with a europium cryptate) and the non-specific phosphodiesterase inhibitor IBMX (3-isobutyl-1-methylxanthine; final concentration 1 mM) were added. After 60 minutes the fluorescence transfer, which correlates with the amount of remaining cAMP, was measured with a microplate reader (Rubystar, BMG) at λex=337 nm, λem=620 nm and λem=665 nm. The enzyme activity was calculated from the quotient formed from the measured signal at 665 nm and that at 620 nm. The result was expressed as the percentage inhibition of enzyme activity of the control (without PDE4 inhibitor). The enzyme was omitted for measurement of the basal control. IC50 values (IC50=concentration causing a half-maximal inhibition of control specific activity) were derived from dose response measurements with eight different concentrations (n=2; N=1-3).
Literature: N. Saldou et al., Comparison of recombinant human PDE4 isoforms: interaction with substrate and inhibitors, Cell. Signal. Vol. 10, No. 6, 427-440, 1998
With `Cc1ccnc(-c2cnc(-n3cc([S+](C)[O-])c4ccc(C(=O)N5CCOCC5)cc43)nc2)c1` (racemic) [Example 142, (1-(5-(4-methylpyridin-2-yl)pyrimidin-2-yl)-3-(methylsulfinyl)-1H-indol-6-yl)(morpholino)methanone] the inhibition at 1 µM was 110%. `Cc1cccc(-c2cnc(-n3cc([S+](C)[O-])c4ccc(C(=O)N5CCOCC5)cc43)nc2)c1` (single isomer, unassigned) [Example 154, (3-(Methylsulfinyl)-1-(5-(m-tolyl)pyrimidin-2-yl)-1H-indol-6-yl)(morpholino)methanone] was tested, and the inhibition at 1 µM was 98%. Work on `COc1ccc(F)c(-c2cnc(-n3cc([S+](C)[O-])c4ccc(C(=O)N5CCOCC5)cc43)nc2)c1` (single isomer, unassigned) [Example 160, (1-(5-(2-Fluoro-5-methoxyphenyl)pyrimidin-2-yl)-3-(methylsulfinyl)-1H-indol-6-yl)(morpholino)methanone] yielded an inhibition at 1 µM of 107%. Work on `C[S+]([O-])c1cn(-c2ncc(-c3ccccc3)cn2)c2cc(C(=O)N3CCOCC3)ccc12` (single isomer, unassigned) [Example 163, (3-(Methylsulfinyl)-1-(5-phenylpyrimidin-2-yl)-1H-indol-6-yl)(morpholino)methanone] yielded an inhibition at 1 µM of 104%. In the case of `C[S+]([O-])c1cn(-c2ncc(-c3ccccc3F)cn2)c2cc(C(=O)N3CCOCC3)ccc12` (single isomer, unassigned) [Example 165, (1-(5-(2-Fluorophenyl)pyrimidin-2-yl)-3-(methylsulfinyl)-1H-indol-6-yl)(morpholino)methanone], the inhibition at 1 µM is reported as 105%. With `COc1ccc(F)c(-c2cnc(-n3cc([S+](C)[O-])c4ccc(C(=O)N5CCNC(=O)C5)cc43)nc2)c1` (single isomer, unassigned) [Example 213, 4-(1-(5-(2-Fluoro-5-methoxyphenyl)pyrimidin-2-yl)-3-(methylsulfinyl)-1H-indole-6-carbonyl)piperazin-2-one] the inhibition at 1 µM was 106%. Work on `Cc1cccc(-c2cnc(-n3cc([S+](C)[O-])c4ccc(C(=O)N5CCNC(=O)C5)cc43)nc2)c1` (single isomer, unassigned) [Example 215, 4-(3-(Methylsulfinyl)-1-(5-(m-tolyl)pyrimidin-2-yl)-1H-indole-6-carbonyl)piperazin-2-one] yielded an inhibition at 1 µM of 110%. With `COc1cccc(-c2cnc(-n3cc([S+](C)[O-])c4ccc(C(=O)N5CCNC(=O)C5)cc43)nc2)c1` (single isomer, unassigned) [Example 217, 4-(1-(5-(3-Methoxyphenyl)pyrimidin-2-yl)-3-(methylsulfinyl)-1H-indole-6-carbonyl)piperazin-2-one] the inhibition at 1 µM was 109%. `CC(O)c1cn(-c2ncc(-c3ccccc3)cn2)c2cc(C(=O)N3CCOCC3)ccc12` (single isomer, unassigned) [Example 254, (3-(1-Hydroxyethyl)-1-(5-phenylpyrimidin-2-yl)-1H-indol-6-yl)(morpholino)methanone] showed an inhibition at 1 µM of 95%. `CC(O)c1cn(-c2ncc(-c3ccccc3)cn2)c2cc(C(=O)N3CCOCC3)ccc12` (single isomer, unassigned) [Example 255, (3-(1-Hydroxyethyl)-1-(5-phenylpyrimidin-2-yl)-1H-indol-6-yl)(morpholino)methanone] was tested, and the Inhibition in % was 95%. In the case of `CC1CC(C)CN(C(=O)c2ccc3c([S+](C)[O-])cn(-c4ncc(-c5ccccc5F)cn4)c3c2)C1` (single isomer, unassigned) [Example 372, (3,5-Dimethylpiperidin-1-yl)(1-(5-(2-fluorophenyl)pyrimidin-2-yl)-3-(methylsulfinyl)-1H-indol-6-yl)methanone], the inhibition at 1 µM is reported as 40%.

Same assay, conditions: inhibition of PDE4B at a test concentration of 1 μM, 1 µM
`Cc1cccc(-c2cnc(-n3cc([S+](C)[O-])c4ccc(C(=O)N5CCOCC5)cc43)nc2)c1` (single isomer, unassigned) [Example 155, (3-(Methylsulfinyl)-1-(5-(m-tolyl)pyrimidin-2-yl)-1H-indol-6-yl)(morpholino)methanone] gave an Inhibition in % of 97%. `COc1cccc(-c2cnc(-n3cc([S+](C)[O-])c4ccc(C(=O)N5CCOCC5)cc43)nc2)c1` (single isomer, unassigned) [Example 157, (1-(5-(3-Methoxyphenyl)pyrimidin-2-yl)-3-(methylsulfinyl)-1H-indol-6-yl)(morpholino)methanone] gave an Inhibition in % of 81%. With `COc1cccc(-c2cnc(-n3cc([S+](C)[O-])c4ccc(C(=O)N5CCOCC5)cc43)nc2)c1` (single isomer, unassigned) [Example 158, (1-(5-(3-Methoxyphenyl)pyrimidin-2-yl)-3-(methylsulfinyl)-1H-indol-6-yl)(morpholino)methanone] the Inhibition in % was 104%. In the case of `COc1ccc(F)c(-c2cnc(-n3cc([S+](C)[O-])c4ccc(C(=O)N5CCOCC5)cc43)nc2)c1` (single isomer, unassigned) [Example 161, (1-(5-(2-Fluoro-5-methoxyphenyl)pyrimidin-2-yl)-3-(methylsulfinyl)-1H-indol-6-yl)(morpholino)methanone], the Inhibition in % is reported as 109%. With `C[S+]([O-])c1cn(-c2ncc(-c3ccccc3)cn2)c2cc(C(=O)N3CCOCC3)ccc12` (single isomer, unassigned) [Example 164, (3-(Methylsulfinyl)-1-(5-phenylpyrimidin-2-yl)-1H-indol-6-yl)(morpholino)methanone] the Inhibition in % was 92%. In the case of `C[S+]([O-])c1cn(-c2ncc(-c3ccccc3F)cn2)c2cc(C(=O)N3CCOCC3)ccc12` (single isomer, unassigned) [Example 166, (1-(5-(2-Fluorophenyl)pyrimidin-2-yl)-3-(methylsulfinyl)-1H-indol-6-yl)(morpholino)methanone], the Inhibition in % is reported as 93%. `COc1ccc(F)c(-c2cnc(-n3cc([S+](C)[O-])c4ccc(C(=O)N5CCNC(=O)C5)cc43)nc2)c1` (single isomer, unassigned) [Example 214, 4-(1-(5-(2-Fluoro-5-methoxyphenyl)pyrimidin-2-yl)-3-(methylsulfinyl)-1H-indole-6-carbonyl)piperazin-2-one] was tested, and the Inhibition in % was 92%. `Cc1cccc(-c2cnc(-n3cc([S+](C)[O-])c4ccc(C(=O)N5CCNC(=O)C5)cc43)nc2)c1` (single isomer, unassigned) [Example 216, 4-(3-(Methylsulfinyl)-1-(5-(m-tolyl)pyrimidin-2-yl)-1H-indole-6-carbonyl)piperazin-2-one] was tested, and the Inhibition in % was 94%. `COc1cccc(-c2cnc(-n3cc([S+](C)[O-])c4ccc(C(=O)N5CCNC(=O)C5)cc43)nc2)c1` (single isomer, unassigned) [Example 218, 4-(1-(5-(3-Methoxyphenyl)pyrimidin-2-yl)-3-(methylsulfinyl)-1H-indole-6-carbonyl)piperazin-2-one] showed an Inhibition in % of 98%. `CC(O)c1cn(-c2ncc(-c3ccccc3F)cn2)c2cc(C(=O)N3CCOCC3)ccc12` (single isomer, unassigned) [Example 252, (1-(5-(2-Fluorophenyl)pyrimidin-2-yl)-3-(1-hydroxyethyl)-1H-indol-6-yl)(morpholino)methanone] was tested, and the Inhibition in % was 97%. Compound `CC(O)c1cn(-c2ncc(-c3ccccc3F)cn2)c2cc(C(=O)N3CCOCC3)ccc12` (single isomer, unassigned) [Example 253, (1-(5-(2-Fluorophenyl)pyrimidin-2-yl)-3-(1-hydroxyethyl)-1H-indol-6-yl)(morpholino)methanone] has an Inhibition in % of 120%.
